# Earlier results in patent publication US6689394B2, “Removal of ectoparasites” (Schering-Plough HealthCare Products, Inc., priority 2001, dated 2004).
# System: head lice
# Conditions: comparison of published results for topical pesticidal treatments
compound,measurement,value
CC1(C)C(C=C(Cl)Cl)C1C(=O)OCc1cccc(Oc2ccccc2)c1 (stereo not shown) [Permethrin],evidence of clinical efficacy,sufficient evidence of efficacy
